Biological target: wild-type human cardiac sodium channel, hNav1.5 (late sodium current) in HEK293 cells (Homo sapiens, UniProt Q14524)
Test: Late INa screening assay (automated whole-cell patch clamp, PatchXpress)
Type: cell-based
Details: HEK293, compound at 1 μM; late INa generated with 10 μM Tefluthrin (or 50 nM ATX II); HEK293 hNav1.5; read-out: Late INa 1 μM (percent block of late INa)
Procedure: The late sodium current (Late INa) and peak sodium current (Peak INa) assays are performed on an automated electrophysiology platform, PatchXpress 7000A (MDS Analytical Technologies, Sunnyvale, Calif.), which uses the whole cell patch clamp technique to measure currents through the cell membrane of up to 16 cells at a time. The assay uses an HEK293 (human embryonic kidney) cell line heterologously expressing the wild-type human cardiac sodium channel, hNav1.5, purchased from Millipore (Billerica, Mass.). No beta subunits were coexpressed with the Na channel alpha subunit. Cells are maintained with standard tissue culture procedures and stable channel expression is maintained with 400 μg/ml Geneticin in the culture medium. Cells isolated for use on PatchXpress are incubated for 5 minutes in Versene 1× and then for 2 minutes in 0.0125% Trypsin-EDTA (both at 37° C.) to ensure that 80-90% of the cells are single and not part of a cell cluster. Experiments are carried out at 24-27° C.
For both the Late INa and Peak INa assays, series resistance compensation is set to 50% and whole-cell compensation is performed automatically. Currents are low-pass filtered at 10 kHz and digitized at 31.25 kHz. Currents through open sodium channels are automatically recorded and stored in the DataXpress2 database (MDS Analytical Technologies, Sunnyvale, Calif.). Analysis is performed using DataXpress2 analysis software and data are compiled in Excel.
Compound stocks are routinely made in glass vials to 10 mM in dimethyl sulfoxide (DMSO). In some cases, when compounds are not soluble in DMSO, they are made in 100% ethanol. Stocks are sonicated as necessary. The extracellular solution for screening Late INa is composed of: 140 mM NaCl, 4 mM KCl, 1.8 mM CaCl2, 0.75 mM MgCl2, and 5 mM HEPES with pH adjusted to 7.4 using NaOH. The extracellular solution for screening Peak INa is composed of: 20 mM NaCl, 120 mM N-methyl-D glucamine, 4 mM KCl, 1.8 mM CaCl2, 0.75 mM MgCl2, and 5 mM HEPES with pH adjusted to 7.4 using HCl. The intracellular solution used to perfuse the inside of the cells for both the Late INa and Peak INa assays contains: 120 mM CsF, 20 mM CsCl, 5 mM EGTA, 5 mM HEPES and pH adjusted to 7.4 with CsOH. Compounds are diluted in extracellular solution to 10 μM in glass vials and then transferred to glass well plates before robotic addition to the cells. The 0Na extracellular solution used at the end of each experiment for the Late INa and Peak INa assays to measure baseline current contains: 140 mM N-methyl-D-glucamine; 4 mM KCl; 1.8 mM CaCl2; 0.75 mM MgCl2; 5 mM HEPES and pH was adjusted to 7.4 with HCl.
For the Late INa assay, sodium channels are activated every 10 seconds (0.1 Hz) by depolarizing the cell membrane to −20 mV for 250 milliseconds (ms) from a holding potential of −120 mV. In response to a −20 mV voltage step, typical Nav1.5 sodium currents activate rapidly to a peak negative current and then inactivate nearly completely within 3-4 ms.
All compounds are tested to determine their activity in blocking the late sodium current. Late INa current is generated by adding 10 μM Tefluthrin (pyrethroid) to the extracellular solution while recording Na currents. For some experiments, 50 nM ATX II (sea anemone toxin), another late INa activator, was used to generate the late component. Both activators generate late components that are large enough that block of the late component by compounds can be measured easily. For the purposes of the screening, late INa is defined as the mean current between 225 ms and 250 ms after stepping to −20 mV to activate Na channels. After establishing the whole cell recording configuration, late INa activators are added to each well 4 times over a 16-17 minute period so that the late component of the Na current reaches a stable value. Compounds are then added (typically at 10 μM), in the presence of late INa activator, with 3 additions over the course of 7 or 8 minutes. […]

wild-type human cardiac sodium channel, hNav1.5 (late sodium current) in HEK293 cells, sequence (Q14524 whole entry): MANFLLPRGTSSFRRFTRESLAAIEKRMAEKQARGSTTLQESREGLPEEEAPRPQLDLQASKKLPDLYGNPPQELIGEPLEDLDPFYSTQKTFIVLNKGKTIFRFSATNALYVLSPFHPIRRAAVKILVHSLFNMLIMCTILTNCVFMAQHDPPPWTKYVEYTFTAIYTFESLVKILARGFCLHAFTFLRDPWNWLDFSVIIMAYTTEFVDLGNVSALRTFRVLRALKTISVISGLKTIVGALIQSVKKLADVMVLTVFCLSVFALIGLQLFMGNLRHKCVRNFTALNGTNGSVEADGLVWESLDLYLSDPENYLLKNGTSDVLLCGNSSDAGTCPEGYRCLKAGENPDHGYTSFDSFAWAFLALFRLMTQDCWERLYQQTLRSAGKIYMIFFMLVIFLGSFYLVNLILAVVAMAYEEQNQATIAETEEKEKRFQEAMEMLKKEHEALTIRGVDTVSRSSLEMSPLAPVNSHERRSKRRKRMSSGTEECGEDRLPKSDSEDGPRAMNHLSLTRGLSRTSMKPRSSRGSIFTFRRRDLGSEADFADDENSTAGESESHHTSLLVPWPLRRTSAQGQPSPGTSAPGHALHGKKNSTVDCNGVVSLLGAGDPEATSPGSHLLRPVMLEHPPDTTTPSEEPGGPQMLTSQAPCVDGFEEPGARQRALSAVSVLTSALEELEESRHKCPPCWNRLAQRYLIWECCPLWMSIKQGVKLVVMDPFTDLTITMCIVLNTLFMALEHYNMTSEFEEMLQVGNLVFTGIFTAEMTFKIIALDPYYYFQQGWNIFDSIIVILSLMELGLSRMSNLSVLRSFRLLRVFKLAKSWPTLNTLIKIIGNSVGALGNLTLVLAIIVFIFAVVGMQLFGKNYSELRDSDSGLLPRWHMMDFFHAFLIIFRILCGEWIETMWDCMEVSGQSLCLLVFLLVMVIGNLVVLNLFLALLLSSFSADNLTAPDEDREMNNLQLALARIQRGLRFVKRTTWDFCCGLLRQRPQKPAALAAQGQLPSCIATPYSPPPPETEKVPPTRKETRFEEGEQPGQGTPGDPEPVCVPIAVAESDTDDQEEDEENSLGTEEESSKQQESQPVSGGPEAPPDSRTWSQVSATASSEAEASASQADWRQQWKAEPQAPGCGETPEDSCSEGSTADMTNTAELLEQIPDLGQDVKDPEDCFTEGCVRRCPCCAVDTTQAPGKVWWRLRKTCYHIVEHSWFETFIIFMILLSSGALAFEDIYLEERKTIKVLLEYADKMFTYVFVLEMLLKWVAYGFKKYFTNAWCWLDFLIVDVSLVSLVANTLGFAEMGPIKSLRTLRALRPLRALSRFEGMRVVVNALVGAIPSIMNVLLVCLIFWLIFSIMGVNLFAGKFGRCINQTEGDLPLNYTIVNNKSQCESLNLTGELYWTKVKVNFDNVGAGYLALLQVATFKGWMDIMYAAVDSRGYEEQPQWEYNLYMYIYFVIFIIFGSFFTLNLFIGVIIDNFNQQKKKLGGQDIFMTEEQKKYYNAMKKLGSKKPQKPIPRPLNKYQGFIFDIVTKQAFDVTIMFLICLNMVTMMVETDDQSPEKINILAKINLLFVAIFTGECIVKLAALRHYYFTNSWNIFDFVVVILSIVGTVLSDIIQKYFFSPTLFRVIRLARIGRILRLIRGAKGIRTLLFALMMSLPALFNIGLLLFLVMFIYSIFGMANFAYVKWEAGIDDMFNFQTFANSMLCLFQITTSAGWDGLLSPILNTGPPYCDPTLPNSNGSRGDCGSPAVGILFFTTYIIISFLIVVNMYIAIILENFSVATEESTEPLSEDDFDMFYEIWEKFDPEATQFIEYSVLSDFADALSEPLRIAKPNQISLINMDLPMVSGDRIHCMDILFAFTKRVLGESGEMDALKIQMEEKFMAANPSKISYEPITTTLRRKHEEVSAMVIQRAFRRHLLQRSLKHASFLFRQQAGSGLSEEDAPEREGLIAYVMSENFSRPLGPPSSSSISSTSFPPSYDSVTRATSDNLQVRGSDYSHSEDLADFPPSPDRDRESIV

With `Cc1cnc(Cn2nc3ccc(-c4ccc(OC(F)(F)F)cc4)cn3c2=O)o1` [compound 25, 2-((5-methyloxazol-2-yl)methyl)-6-(4-(trifluoromethoxy)phenyl)-[1,2,4]triazolo[4,3-a]pyridin-3(2H)-one] as the compound, how does the inhibition at 1 µM read?
The inhibition at 1 µM was 30.3%.

Which inhibition at 1 µM does the source give for `Cn1nc(C2CC2)cc1Cn1nc2ccc(-c3ccc(OC(F)(F)F)cc3)cn2c1=O` [compound 26, 2-((3-cyclopropyl-1-methyl-1H-pyrazol-5-yl)methyl)-6-(4-(trifluoromethoxy)phenyl)-[1,2,4]triazolo[4,3-a]pyridin-3(2H)-one] here?
Its inhibition at 1 µM is 19.3%.

`O=c1n(Cc2ncon2)nc2ccc(-c3ccc(OC(F)(F)F)cc3)cn12` [compound 27, 2-((1,2,4-oxadiazol-3-yl)methyl)-6-(4-(trifluoromethoxy)phenyl)-[1,2,4]triazolo[4,3-a]pyridin-3(2H)-one] was tested. Which inhibition at 1 µM did it give?
Its inhibition at 1 µM is 11.2%.

With `O=c1n(CCOc2ccccc2)nc2ccc(-c3ccc(OC(F)(F)F)cc3)cn12` [compound 28, 2-(2-phenoxyethyl)-6-(4-(trifluoromethoxy)phenyl)-[1,2,4]triazolo[4,3-a]pyridin-3(2H)-one] as the compound, how does the inhibition at 1 µM read?
Its inhibition at 1 µM is 46.3%.

With `O=c1n(Cc2nc(Cc3ccccc3)no2)nc2ccc(-c3ccc(OC(F)(F)F)cc3)cn12` [compound 29, 2-((3-benzyl-1,2,4-oxadiazol-5-yl)methyl)-6-(4-(trifluoromethoxy)phenyl)-[1,2,4]triazolo[4,3-a]pyridin-3(2H)-one] as the compound, how does the inhibition at 1 µM read?
Its inhibition at 1 µM is 27.2%.

Which inhibition at 1 µM does the source give for `COc1c(-c2ccc(OC(F)(F)F)cc2)ccc2nn(Cc3nc(C)no3)c(=O)n12` [compound 30, 5-methoxy-2-((3-methyl-1,2,4-oxadiazol-5-yl)methyl)-6-(4-(trifluoromethoxy)phenyl)-[1,2,4]triazolo[4,3-a]pyridin-3(2H)-one] here?
Its inhibition at 1 µM is 18.2%.

For `Cc1nc(Cn2nc3ccc(-c4cccc(Oc5ccccc5)c4)cn3c2=O)no1` [compound 31, 2-((5-methyl-1,2,4-oxadiazol-3-yl)methyl)-6-(3-phenoxyphenyl)-[1,2,4]triazolo[4,3-a]pyridin-3(2H)-one], which inhibition at 1 µM is on record?
The inhibition at 1 µM was 24.4%.

`Cc1nc(Cn2nc3ccc(-c4ccc(Oc5ccc(Cl)cc5)cc4)cn3c2=O)no1` [compound 32, 6-(4-(4-chlorophenoxy)phenyl)-2-((5-methyl-1,2,4-oxadiazol-3-yl)methyl)-[1,2,4]triazolo[4,3-a]pyridin-3(2H)-one] was tested. Which inhibition at 1 µM did it give?
The inhibition at 1 µM was 68.5%.

With `O=c1n(Cc2nc(-c3ccccc3Cl)no2)nc2ccc(-c3ccc(OC(F)(F)F)cc3)cn12` [compound 33, 2-((3-(2-chlorophenyl)-1,2,4-oxadiazol-5-yl)methyl)-6-(4-(trifluoromethoxy)phenyl)-[1,2,4]triazolo[4,3-a]pyridin-3(2H)-one] as the compound, how does the inhibition at 1 µM read?
Its inhibition at 1 µM is 20.5%.

Which inhibition at 1 µM does the source give for `O=c1n(-c2ccccn2)nc2ccc(-c3ccc(OC(F)(F)F)cc3)cn12` [compound 34, 2-(pyridin-2-yl)-6-(4-(trifluoromethoxy)phenyl)-[1,2,4]triazolo[4,3-a]pyridin-3(2H)-one] here?
The inhibition at 1 µM was 26%.

How did the inhibition at 1 µM turn out when `O=c1n(CCn2cccn2)nc2ccc(-c3ccc(OC(F)(F)F)cc3)cn12` [compound 35, 2-(2-(1H-pyrazol-1-yl)ethyl)-6-(4-(trifluoromethoxy)phenyl)-[1,2,4]triazolo[4,3-a]pyridin-3(2H)-one] was run?
The inhibition at 1 µM was 12.2%.

With `O=c1n(CCc2ccccn2)nc2ccc(-c3ccc(OC(F)(F)F)cc3)cn12` [compound 36, 2-(2-(pyridin-2-yl)ethyl)-6-(4-(trifluoromethoxy)phenyl)-[1,2,4]triazolo[4,3-a]pyridin-3(2H)-one] as the compound, how does the inhibition at 1 µM read?
The inhibition at 1 µM was 48.4%.

How did the inhibition at 1 µM turn out when `COc1ccccc1OCCCn1nc2ccc(-c3ccc(OC(F)(F)F)cc3)cn2c1=O` [compound 37, 2-(3-(2-methoxyphenoxy)propyl)-6-(4-(trifluoromethoxy)phenyl)-[1,2,4]triazolo[4,3-a]pyridin-3(2H)-one] was run?
Its inhibition at 1 µM is 34.5%.

For `O=c1n(CC(O)COc2ccc(Cl)cc2)nc2ccc(-c3ccc(OC(F)(F)F)cc3)cn12` (stereo not shown) [compound 38, 2-(3-(4-chlorophenoxy)-2-hydroxypropyl)-6-(4-(trifluoromethoxy)phenyl)-[1,2,4]triazolo[4,3-a]pyridin-3(2H)-one], which inhibition at 1 µM is on record?
Its inhibition at 1 µM is 10.8%.

With `O=c1n(CCN2CCC(Oc3ccccc3)C2)nc2ccc(-c3ccc(OC(F)(F)F)cc3)cn12` (stereo not shown) [compound 39, 2-(2-(3-phenoxypyrrolidin-1-yl)ethyl)-6-(4-(trifluoromethoxy)phenyl)-[1,2,4]triazolo[4,3-a]pyridin-3(2H)-one] as the compound, how does the inhibition at 1 µM read?
The inhibition at 1 µM was 45.4%.

Which inhibition at 1 µM does the source give for `O=c1n(CCOc2ccc(Cl)cc2)nc2ccc(-c3ccc(OC(F)(F)F)cc3)cn12` [compound 40, 2-(2-(4-chlorophenoxy)ethyl)-6-(4-(trifluoromethoxy)phenyl)-[1,2,4]triazolo[4,3-a]pyridin-3(2H)-one] here?
The inhibition at 1 µM was 34.3%.

`O=c1n(CCn2cc(Cl)cn2)nc2ccc(-c3ccc(OC(F)(F)F)cc3)cn12` [compound 41, 2-(2-(4-chloro-1H-pyrazol-1-yl)ethyl)-6-(4-(trifluoromethoxy)phenyl)-[1,2,4]triazolo[4,3-a]pyridin-3(2H)-one] was tested. Which inhibition at 1 µM did it give?
The inhibition at 1 µM was 12.2%.

`Cc1ccn(CCn2nc3ccc(-c4ccc(OC(F)(F)F)cc4)cn3c2=O)n1` [compound 42, 2-(2-(3-methyl-1H-pyrazol-1-yl)ethyl)-6-(4-(trifluoromethoxy)phenyl)-[1,2,4]triazolo[4,3-a]pyridin-3(2H)-one] was tested. Which inhibition at 1 µM did it give?
Its inhibition at 1 µM is 18.9%.

How did the inhibition at 1 µM turn out when `O=c1n(CC(O)COc2ccccc2)nc2ccc(-c3ccc(OC(F)(F)F)cc3)cn12` (stereo not shown) [compound 43, 2-(2-hydroxy-3-phenoxypropyl)-6-(4-(trifluoromethoxy)phenyl)-[1,2,4]triazolo[4,3-a]pyridin-3(2H)-one] was run?
Its inhibition at 1 µM is 19.3%.

How did the inhibition at 1 µM turn out when `Cc1cccc(C)c1OCCn1nc2ccc(-c3ccc(OC(F)(F)F)cc3)cn2c1=O` [compound 44, 2-(2-(2,6-dimethylphenoxy)ethyl)-6-(4-(trifluoromethoxy)phenyl)-[1,2,4]triazolo[4,3-a]pyridin-3(2H)-one] was run?
The inhibition at 1 µM was 43.1%.

For `O=c1n(CCn2cnc(-c3ccccc3)c2)nc2ccc(-c3ccc(OC(F)(F)F)cc3)cn12` [compound 45, 2-(2-(4-phenyl-1H-imidazol-1-yl)ethyl)-6-(4-(trifluoromethoxy)phenyl)-[1,2,4]triazolo[4,3-a]pyridin-3(2H)-one], which inhibition at 1 µM is on record?
The inhibition at 1 µM was 11.8%.

Which inhibition at 1 µM does the source give for `O=c1n(CCOc2ccccc2Cl)nc2ccc(-c3ccc(OC(F)(F)F)cc3)cn12` [compound 46, 2-(2-(2-chlorophenoxy)ethyl)-6-(4-(trifluoromethoxy)phenyl)-[1,2,4]triazolo[4,3-a]pyridin-3(2H)-one] here?
The inhibition at 1 µM was 43.2%.

`O=c1n(CCOc2ncccc2C(F)(F)F)nc2ccc(-c3ccc(OC(F)(F)F)cc3)cn12` [compound 47, 6-(4-(trifluoromethoxy)phenyl)-2-(2-(3-(trifluoromethyl)pyridin-2-yloxy)ethyl)-[1,2,4]triazolo[4,3-a]pyridin-3(2H)-one] was tested. Which inhibition at 1 µM did it give?
The inhibition at 1 µM was 43.6%.

Which inhibition at 1 µM does the source give for `Cc1cccc(CCn2nc3ccc(-c4ccc(OC(F)(F)F)cc4)cn3c2=O)n1` [compound 48, 2-(2-(6-methylpyridin-2-yl)ethyl)-6-(4-(trifluoromethoxy)phenyl)-[1,2,4]triazolo[4,3-a]pyridin-3(2H)-one] here?
The inhibition at 1 µM was 34.9%.

For `O=c1n(CCOc2ccccn2)nc2ccc(-c3ccc(OC(F)(F)F)cc3)cn12` [compound 49, 2-(2-(pyridin-2-yloxy)ethyl)-6-(4-(trifluoromethoxy)phenyl)-[1,2,4]triazolo[4,3-a]pyridin-3(2H)-one], which inhibition at 1 µM is on record?
Its inhibition at 1 µM is 29.9%.

From US9079901B2, “Fused heterocyclic compounds as ion channel modulators” (Gilead Sciences, Inc., priority 2010, dated 2015)
